Test results as given in ChEMBL document CHEMBL1136665 (Bioorg Med Chem Lett, 2003).

Columns and labels:
[1] = molecular target: T1, Prostaglandin G/H synthase 2 (Homo sapiens, UniProt P35354)
T1 sequence (P35354 whole entry): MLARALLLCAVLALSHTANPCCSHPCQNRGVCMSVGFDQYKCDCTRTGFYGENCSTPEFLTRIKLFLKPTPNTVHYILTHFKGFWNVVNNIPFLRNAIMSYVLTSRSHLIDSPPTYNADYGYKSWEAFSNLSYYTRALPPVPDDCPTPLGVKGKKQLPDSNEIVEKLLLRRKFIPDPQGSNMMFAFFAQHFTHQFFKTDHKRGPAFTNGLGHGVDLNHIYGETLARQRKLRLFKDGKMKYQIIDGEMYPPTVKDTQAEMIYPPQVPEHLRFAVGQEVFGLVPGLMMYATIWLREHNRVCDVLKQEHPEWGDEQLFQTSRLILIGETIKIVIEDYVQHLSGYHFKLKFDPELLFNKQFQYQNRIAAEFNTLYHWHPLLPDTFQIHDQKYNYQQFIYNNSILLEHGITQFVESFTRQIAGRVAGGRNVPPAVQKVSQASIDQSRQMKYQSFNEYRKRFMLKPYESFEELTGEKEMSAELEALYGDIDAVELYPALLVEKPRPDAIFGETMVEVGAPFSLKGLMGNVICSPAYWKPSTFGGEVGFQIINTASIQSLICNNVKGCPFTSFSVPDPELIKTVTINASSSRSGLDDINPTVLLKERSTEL

[2] = Clearance rate following an oral dose of 20 mg/kg in rats; assay type: ADME, organism-based; parameters: dose 20 mg/kg, route oral; conditions: rat, in vivo, read-out: Clearance
[3] = molecular target: T1, Prostaglandin G/H synthase 2; assay: Inhibitory concentration was measured against Cyclooxygenase-2 in human whole blood; assay type: tissue-based
Rattus norvegicus [4] = assay: Inhibition of carrageenan induced rat paw oedema.; assay type: functional
[5] = molecular target: T2, Prostaglandin G/H synthase 1 (Homo sapiens, UniProt P23219); assay: Inhibitory concentration was measured […] the sensitive U937 microsome assay; assay type: microsomes
[6] = Peak plasma concentration (Cmax) following an oral dose of […] mg/kg in rats; assay type: ADME, organism-based; conditions: rat, 20 mg/kg
[7] = molecular target: T2, Prostaglandin G/H synthase 1; assay type: microsomes
Description: Inhibitory concentration was measured against Prostaglandin G/H synthase 1 in the sensitive U937 microsome assay

[8] = molecular target: T1, Prostaglandin G/H synthase 2; remark: listed apart in the source
Description: Inhibitory concentration was measured against Prostaglandin G/H synthase 2 in human whole blood

[9] = molecular target: T2, Prostaglandin G/H synthase 1; assay type: tissue-based, Blood
Description: Inhibitory concentration was measured against Prostaglandin G/H synthase 1 in human whole blood

[10] = Oral bioavailability in rat; assay type: ADME, organism-based; conditions: in vivo
Rattus norvegicus [11] = species: Rattus norvegicus; assay: Inhibitory dose to reduce arthritis was determined in rats; assay type: functional; conditions: read-out: ID50 (the source's name)
Rattus norvegicus [12] = species: Rattus norvegicus; assay: Effective concentration to reduce pyrexia was determined in rats; assay type: functional
[13] = Aqueous solubility was determined; assay type: physicochemical
Rattus norvegicus [14] = species: Rattus norvegicus; assay: Inhibitory dose to produce analgesia was determined in rats; assay type: functional; conditions: read-out: ID50 (the source's name)

T2 sequence (P23219 whole entry): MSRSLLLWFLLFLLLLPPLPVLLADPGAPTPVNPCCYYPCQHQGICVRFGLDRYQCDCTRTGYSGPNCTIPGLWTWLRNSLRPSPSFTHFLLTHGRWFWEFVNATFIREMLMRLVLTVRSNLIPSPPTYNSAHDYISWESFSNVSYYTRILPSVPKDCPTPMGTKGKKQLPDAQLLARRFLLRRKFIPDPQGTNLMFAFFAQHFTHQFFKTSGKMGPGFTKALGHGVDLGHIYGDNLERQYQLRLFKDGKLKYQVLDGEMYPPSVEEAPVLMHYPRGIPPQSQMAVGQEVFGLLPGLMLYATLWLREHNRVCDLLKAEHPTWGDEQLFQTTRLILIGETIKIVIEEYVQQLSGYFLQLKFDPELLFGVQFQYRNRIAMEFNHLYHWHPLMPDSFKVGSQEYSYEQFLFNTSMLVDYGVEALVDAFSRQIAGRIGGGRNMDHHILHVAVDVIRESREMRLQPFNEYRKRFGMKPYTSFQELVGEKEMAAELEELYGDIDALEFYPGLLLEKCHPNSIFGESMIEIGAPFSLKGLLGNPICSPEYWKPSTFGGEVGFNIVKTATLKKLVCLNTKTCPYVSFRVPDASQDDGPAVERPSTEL

Row | SMILES | IC50 [1] [µM] | ED50 (Rattus norvegicus [4]) [mg/kg] | IC50 [7] [µM] | IC50 [8] [µM] | other results
1 | CC1(O)OC(=O)C(c2ccc(F)cc2)=C1c1ccc(S(C)(=O)=O)cc1 (configuration not stated) | 0.38 | 1.8 |  |  | CL/F [2]: 2.6 mL/min; IC50 [3]: 1.8 µM; IC50 [5]: > 100 µM; Cmax [6]: 60 µM
2 | CC(C)OC1(C)OC(=O)C(c2ccc(F)cc2)=C1c1ccc(S(C)(=O)=O)cc1 (configuration not stated) |  |  | 3 | 0.8 | 
3 | CC1(O)OC(=O)C(c2ccc(Cl)c(Cl)c2)=C1c1ccc(S(C)(=O)=O)cc1 (configuration not stated) | 0.07 | 1.9 | 35 | 0.85 | IC50 [9]: 75 µM
4 | CC1(O)OC(=O)C(c2ccc(Cl)cc2Cl)=C1c1ccc(S(C)(=O)=O)cc1 (configuration not stated) | 1.2 |  | > 100 | 7.5 | 
5 | CC1(O)OC(=O)C(c2ccc3ccccc3c2)=C1c1ccc(S(C)(=O)=O)cc1 (configuration not stated) | 0.45 | > 10 | 30 | 3.2 | 
6 | CC1(O)OC(=O)C(c2ccccc2)=C1c1ccc(S(C)(=O)=O)cc1 (configuration not stated) | 0.16 | 1.5 | > 100 | 1.2 | IC50 [9]: > 90 µM
7 | CC1(O)OC(=O)C(Sc2ccccc2)=C1c1ccc(S(C)(=O)=O)cc1 (configuration not stated) | > 5 |  | > 10 | > 10 | 
8 | COC1(C)OC(=O)C(c2ccc(F)cc2)=C1c1ccc(S(C)(=O)=O)cc1 (configuration not stated) | 0.069 | 2.8 | 14 |  | IC50 [9]: 57 µM; IC50 [3]: 0.1 µM
9 | CC1(OCC(F)(F)F)OC(=O)C(c2ccc(F)cc2)=C1c1ccc(S(C)(=O)=O)cc1 (configuration not stated) | 0.32 | 6.4 | > 10 | 0.4 | bioavailability [10]: 35%
10 | CC1(O)OC(=O)C(Oc2ccc(F)c(F)c2)=C1c1ccc(S(C)(=O)=O)cc1 (configuration not stated) | > 5 |  | > 10 | > 33 | 
11 | CC(C)c1ccc(C2=C(c3ccc(S(C)(=O)=O)cc3)C(C)(O)OC2=O)cc1 (configuration not stated) | 0.41 |  | > 300 | 4.3 | IC50 [9]: > 100 µM
12 | CC1(O)OC(=O)C(c2ccsc2)=C1c1ccc(S(C)(=O)=O)cc1 (configuration not stated) | 0.11 |  | > 100 | 24 | 
13 | CC(=O)/C(=C(\C(=O)[O-])c1ccc(Cl)cc1)c1ccc(S(C)(=O)=O)cc1.[Na+] |  | 1.8 |  |  | ED50 (Rattus norvegicus [11]): 0.6 mg/kg; ED50 (Rattus norvegicus [12]): 0.7 mg/kg; solubility [13]: > 100 mg/mL; ED50 (Rattus norvegicus [14]): 0.8 mg/kg
14 | CC1(O)OC(=O)C(c2cccc(F)c2)=C1c1ccc(S(C)(=O)=O)cc1 (configuration not stated) | 0.25 | > 10 | > 100 | 12.8 | 
15 | CC1(O)OC(=O)C(c2ccc(Br)cc2)=C1c1ccc(S(C)(=O)=O)cc1 (configuration not stated) | 0.14 | 1.6 | 101 | 1.7 | IC50 [9]: > 100 µM
16 | CC1(O)OC(=O)C(c2cccs2)=C1c1ccc(S(C)(=O)=O)cc1 (configuration not stated) | 1.9 |  | > 100 | > 33 | 
17 | CC1(O)OC(=O)C(c2ccc(Cl)cc2)=C1c1ccc(S(C)(=O)=O)cc1 (configuration not stated) | 0.11 | 1.4 | 105 |  | 
18 | CSc1ccc(C2=C(c3ccc(S(C)(=O)=O)cc3)C(C)(O)OC2=O)cc1 (configuration not stated) | 0.31 |  | 7 | 1.7 | IC50 [9]: 38 µM
19 | CC1(O)OC(=O)C(c2cc3ccccc3s2)=C1c1ccc(S(C)(=O)=O)cc1 (configuration not stated) |  |  | > 100 |  | 
20 | CCOC1(C)OC(=O)C(c2ccc(F)cc2)=C1c1ccc(S(C)(=O)=O)cc1 (configuration not stated) |  |  | 10 | 0.5 | 
21 | CC1(O)OC(=O)C(c2ccc(O)cc2)=C1c1ccc(S(C)(=O)=O)cc1 (configuration not stated) | > 5 |  | > 10 | > 33 | 
22 | CC1(O)OC(=O)C(c2ccc(F)c(Cl)c2)=C1c1ccc(S(C)(=O)=O)cc1 (configuration not stated) | 0.11 |  | 81 | 2.2 | 
23 | CC1(O)OC(=O)C(c2ccc(F)c(F)c2)=C1c1ccc(S(C)(=O)=O)cc1 (configuration not stated) | 0.2 | > 10 | > 300 | 6.3 | 
24 | CC(=O)/C(=C(\C(=O)[O-])c1ccccc1)c1ccc(S(C)(=O)=O)cc1.[Na+] |  |  |  |  | solubility [13]: > 100 mg/mL
25 | CC1(O)OC(=O)C(c2cc(F)cc(F)c2)=C1c1ccc(S(C)(=O)=O)cc1 (configuration not stated) | 0.55 |  | > 100 | 13.4 | IC50 [9]: > 90 µM
26 | Cc1ccc(-c2cc(C(F)(F)F)nn2-c2ccc(S(N)(=O)=O)cc2)cc1 [CELECOXIB] |  | 3.2 |  |  | 
27 | CS(=O)(=O)c1ccc(C2=C(c3ccccc3)C(=O)OC2)cc1 [ROFECOXIB] |  | 1.5 |  |  | 
